Data as given in PubChem BioAssay AID248 (DTP/NCI, 2004).
Where “and” joins values, the source holds several entries; their conditions need not be identical. Equal entries are not always repeated. Toxic doses and inconclusive results are not listed. No stated cut-off is given here; in the data, active means T/C of 150% or more; inactive means T/C below 125%.

Test system: L1210 leukemia ip in BDF1 mice, survival T/C
Experiment: NCI In Vivo Anticancer Drug Screen. Data for tumor model L1210 Leukemia (intraperitoneal) in B6D2F1 (BDF1) mice
Settings: endpoint: mean survival time, higher = longer survival
Method in brief: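 Transplanted-tumor mice were given test agent; controls received vehicle only. Survival readings from the two groups were divided (treated over control).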

[1] = dose: 50.0 mg/kg/injection, schedule: Q01DX009 (ip), vehicle: saline
[2] = dose: 100.0 mg/kg/injection, schedule: Q04DX003 (ip), vehicle: saline with Tween-80
[3] = dose: 200.0 mg/kg/injection, schedule: Q04DX003 (ip), vehicle: saline with Tween-80
[4] = dose: 400.0 mg/kg/injection, schedule: Q04DX003 (ip), vehicle: saline with Tween-80
[5] = dose: 100.0 mg/kg/injection, schedule: Q01DX009 (ip), vehicle: saline with Tween-80
[6] = dose: 200.0 mg/kg/injection, schedule: Q01DX009 (ip), vehicle: saline with Tween-80
[7] = dose: 400.0 mg/kg/injection, schedule: Q01DX009 (ip), vehicle: saline with Tween-80

Measured: T/C

CC1(C)CN1P(=O)(N1CC1(C)C)N1CC1(C)C (stereo not drawn)
225 % of control and 86 % of control: dose: 150.0 mg/kg/injection, schedule: Q01DX001 (ip), vehicle: saline
active: dose: 6.0 mg/kg/injection, schedule: Q01DX009 (ip), vehicle: saline 182 % of control | dose: 12.0 mg/kg/injection, schedule: Q01DX009 (ip), vehicle: saline 151 % of control | dose: 20.0 mg/kg/injection, schedule: Q01DX009 (ip), vehicle: saline 194 % of control | dose: 22.0 mg/kg/injection, schedule: Q01DX009 (ip), vehicle: saline 222 % of control | dose: 33.0 mg/kg/injection, schedule: Q01DX009 (ip), vehicle: saline 213 % of control | dose: 40.0 mg/kg/injection, schedule: Q01DX009 (ip), vehicle: saline 269 % of control | [1] 204 % of control | dose: 112.5 mg/kg/injection, schedule: Q01DX001 (ip), vehicle: saline 184 % of control
inactive: dose: 1.25 mg/kg/injection, schedule: Q01DX009 (ip), vehicle: saline 105 % of control | dose: 2.5 mg/kg/injection, schedule: Q01DX009 (ip), vehicle: saline 111 % of control | dose: 5.0 mg/kg/injection, schedule: Q01DX009 (ip), vehicle: saline 107 % of control | dose: 75.0 mg/kg/injection, schedule: Q01DX009 (ip), vehicle: saline 95 % of control

O=C(Nc1ccc(C(=O)Cl)cc1)OCCCl
inactive: [2] 96 % of control | [3] 96 % of control | [4] 96 % of control

CCOC(=O)c1cnc2ccc(OC)cc2c1Cl
inactive: [5] 95 % of control | [2] 107 % of control | [6] 101 % of control | [3] 104 % of control | [7] 97 % of control | [4] 96 % of control

c1ccc(Cc2[nH]c3ccccc3c2-c2ccccc2)cc1
inactive: [5] 93 % of control | dose: 100.0 mg/kg/injection, schedule: Q04DX002 (ip), vehicle: saline with Tween-80 109 % of control | [6] 87 % of control | dose: 200.0 mg/kg/injection, schedule: Q04DX002 (ip), vehicle: saline with Tween-80 100 % of control | dose: 400.0 mg/kg/injection, schedule: Q04DX002 (ip), vehicle: saline with Tween-80 90 % of control

CCCCOc1cc([N+](=O)[O-])ccc1CO
inactive: [5] 109 % of control | [6] 98 % of control | [7] 98 % of control

O=C(O)C1c2ccccc2-c2c(-c3ccccc3)cccc21 (stereo not drawn)
inactive: [2] 87 % of control | [3] 91 % of control | [4] 103 % of control

CC(=O)Nc1ccc(NC(=O)C2CC2)cc1
inactive: dose: 100.0 mg/kg/injection, schedule: Q01DX009 (ip), vehicle: Klucel (hydroxypropylcellulose) (HPC) 95 % of control | dose: 200.0 mg/kg/injection, schedule: Q01DX009 (ip), vehicle: Klucel (hydroxypropylcellulose) (HPC) 109 % of control | dose: 400.0 mg/kg/injection, schedule: Q01DX009 (ip), vehicle: Klucel (hydroxypropylcellulose) (HPC) 104 % of control

Cn1nc(NC(=O)C(F)(F)F)c2ncc(-c3ccccc3)nc21
inactive: [5] 96 % of control | [6] 96 % of control

CCOC(=O)c1cnc2ccccc2c1Cl
inactive: dose: 100.0 mg/kg/injection, schedule: Q01DX001 (ip), vehicle: saline 103 % of control and 87 % of control | dose: 200.0 mg/kg/injection, schedule: Q01DX001 (ip), vehicle: saline 105 % of control | dose: 400.0 mg/kg/injection, schedule: Q01DX001 (ip), vehicle: saline 103 % of control

CCCCCCCCN(N)C12CC3CC(CC(C3)C1)C2
inactive: dose: 6.25 mg/kg/injection, schedule: Q01DX009 (ip), vehicle: saline 106 % of control | dose: 12.5 mg/kg/injection, schedule: Q01DX009 (ip), vehicle: saline 107 % of control | dose: 12.5 mg/kg/injection, schedule: Q04DX003 (ip), vehicle: saline 113 % of control | dose: 25.0 mg/kg/injection, schedule: Q01DX009 (ip), vehicle: saline 106 % of control | dose: 25.0 mg/kg/injection, schedule: Q04DX003 (ip), vehicle: saline 113 % of control | [1] 87 % of control | dose: 50.0 mg/kg/injection, schedule: Q04DX003 (ip), vehicle: saline 113 % of control

CCC(=O)OC1CCC2C3CCC4=CC(=O)CCC4(C)C3CCC12C (stereo not drawn)
inactive: dose: 100.0 mg/kg/injection, schedule: Q01DX001 (ip), vehicle: carboxymethylcellulose (CMC) 107 % of control | dose: 200.0 mg/kg/injection, schedule: Q01DX001 (ip), vehicle: carboxymethylcellulose (CMC) 96 % of control | dose: 400.0 mg/kg/injection, schedule: Q01DX001 (ip), vehicle: carboxymethylcellulose (CMC) 96 % of control

Nc1nc(N)c2nc3c(nc2n1)CN(c1ccc(C(=O)O)cc1)C3=O
inactive: dose: 100.0 mg/kg/injection, schedule: Q01DX009 (ip), vehicle: saline 104 % of control | dose: 200.0 mg/kg/injection, schedule: Q01DX009 (ip), vehicle: saline 89 % of control
